Test results as given in US11820766B2, “Monoacylglycerol lipase modulators” (Janssen Pharmaceutica NV, priority 2018, dated 2023).

These compounds were tested against T1, human MGL from HeLa cells (Homo sapiens, UniProt Q99685) (assay: In vitro MGL activity assay: [glycerol-1,3-3H]-oleyl glycerol cleavage by MGL from HeLa cells). Conditions: 300 nM [Glycerol-1,3-3H]-oleyl glycerol, one hour.
T1 construct: combining endogenously expressed MGL from HeLa cells with test compounds; endogenous in cells; host or cells: HeLa cells / cell homogenates
T1 sequence (Q99685 1-303): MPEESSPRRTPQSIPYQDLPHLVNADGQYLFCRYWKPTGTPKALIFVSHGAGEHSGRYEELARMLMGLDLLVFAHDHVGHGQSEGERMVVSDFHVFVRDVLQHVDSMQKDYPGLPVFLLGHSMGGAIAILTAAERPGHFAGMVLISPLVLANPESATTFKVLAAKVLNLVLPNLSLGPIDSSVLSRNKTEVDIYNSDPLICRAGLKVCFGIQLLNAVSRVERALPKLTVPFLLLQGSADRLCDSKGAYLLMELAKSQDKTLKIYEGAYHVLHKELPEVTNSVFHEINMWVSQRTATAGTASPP
Assay type: biochemical
Source text: MGL is the predominant hydrolase in HeLa cells/cell homogenates.

SMILES	IC50
C[C@H]1c2nn(C)c(-c3cc(F)c(F)c(F)c3)c2CCN1C(=O)c1ccnc2c1OCCC2 [Example 568, 3,4-Dihydro-2H-pyrano[3,2-b]pyridin-8-yl-[(7S)-2,7-dimethyl-3-(3,4,5-trifluorophenyl)-5,7-dihydro-4H-pyrazolo[3,4-c]pyridin-6-yl]methanone]	9.68 nM
Cc1cnn2ncc(C(=O)N3CCc4c(nn(C)c4-c4cc(F)c(F)c(F)c4)[C@@H]3C)c2c1 [Example 443, [(7S)-2,7-Dimethyl-3-(3,4,5-trifluorophenyl)-5,7-dihydro-4H-pyrazolo[3,4-c]pyridin-6-yl]-(5-methylpyrazolo[1,5-b]pyridazin-3-yl) methanone]	12.4 nM
COc1nccc(C(=O)N2CCc3c(nn(C)c3-c3cc(F)cc(OC(F)F)c3)[C@@H]2C)c1C [Example 597, [(7S)-3-[3-(Difluoromethoxy)-5-fluoro-phenyl]-2,7-dimethyl-5,7-dihydro-4H-pyrazolo[3,4-c]pyridin-6-yl]-(2-methoxy-3-methyl-4-pyridyl)methanone]	25 nM
Cc1c(C(=O)N2CCc3c(nn(C)c3-c3cc(F)c(F)c(F)c3)[C@@H]2C)nn2c1COC(C)(C)C2 [Example 557, [(7S)-2,7-Dimethyl-3-(3,4,5-trifluorophenyl)-5,7-dihydro-4H-pyrazolo[3,4-c]pyridin-6-yl]-(3,6,6-trimethyl-4,7-dihydropyrazolo[5,1-c][1,4]oxazin-2-yl)methanone]	1840 nM
C[C@H]1c2nn(C)c(-c3cc(F)c(F)c(F)c3)c2CCN1C(=O)c1cnn2c1NCCC2C(F)(F)F (stereo partly drawn) [Example 558, ((S)-2,7-Dimethyl-3-(3,4,5-trifluorophenyl)-4,5-dihydro-2H-pyrazolo[3,4-c]pyridin-6 (7H)-yl)(7-(trifluoromethyl)-4,5,6,7-tetrahydropyrazolo[1,5-a]pyrimidin-3-yl)methanone]	1800 nM
C[C@H]1c2nn(C)c(-c3cc(F)c(F)c(F)c3)c2CCN1C(=O)c1n[nH]c2ccncc12 [Example 435, [(7S)-2,7-Dimethyl-3-(3,4,5-trifluorophenyl)-5,7-dihydro-4H-pyrazolo[3,4-c]pyridin-6-yl]-(1H-pyrazolo[4,3-c]pyridin-3-yl)methanone]	40.2 nM
Cc1nccn2nc(C3CC3)c(C(=O)N3CCc4c(nn(C)c4-c4cc(F)c(F)c(F)c4)[C@@H]3C)c12 [Example 447, (2-Cyclopropyl-4-methyl-pyrazolo[1,5-a]pyrazin-3-yl)-[(7S)-2,7-dimethyl-3-(3,4,5-trifluorophenyl)-5,7-dihydro-4H-pyrazolo[3,4-c]pyridin-6-yl]methanone]	392 nM

More lines, now with the values ahead:

IC50	SMILES
55.2 nM	C[C@H]1c2nn(C)c(-c3cccc4c3OCC4)c2CCN1C(=O)c1ccc2ncccc2c1 [Example 539, [(7S)-3-(2,3-Dihydrobenzofuran-7-yl)-2,7-dimethyl-5,7-dihydro-4H-pyrazolo[3,4-c]pyridin-6-yl]-(6-quinolyl)methanone]
52.2 nM	C[C@H]1c2nn(C)c(-c3ccc(F)c(F)c3F)c2CCN1C(=O)c1ccc2ncccc2c1 [Example 515, [(7S)-2,7-Dimethyl-3-(2,3,4-trifluorophenyl)-5,7-dihydro-4H-pyrazolo[3,4-c]pyridin-6-yl]-(6-quinolyl)methanone]
10.2 nM	[2H]c1cnc2cc(C(=O)N3CCc4c(nn(C)c4-c4cc(F)c(F)c(F)c4)[C@@H]3C)ccc2n1 [Example 483, (2-Deuterioquinoxalin-6-yl)-[(7S)-2,7-dimethyl-3-(3,4,5-trifluorophenyl)-5,7-dihydro-4H-pyrazolo[3,4-c]pyridin-6-yl]methanone]
72.6 nM	C[C@H]1c2nn(C)c(-c3cccc4nonc34)c2CCN1C(=O)c1ccc2ncccc2c1 [Example 538, [(7S)-3-(2,1,3-Benzoxadiazol-4-yl)-2,7-dimethyl-5,7-dihydro-4H-pyrazolo[3,4-c]pyridin-6-yl]-(6-quinolyl)methanone]
5.62 nM	C[C@H]1c2nn(C)c(-c3cc(F)c(F)c(F)c3)c2CCN1C(=O)c1ccc2nccc(Br)c2c1 [Example 547, (4-Bromo-6-quinolyl)-[(7S)-2,7-dimethyl-3-(3,4,5-trifluorophenyl)-5,7-dihydro-4H-pyrazolo[3,4-c]pyridin-6-yl]methanone]

Same assay, conditions: 300 nM [Glycerol-1,3-3H]-oleyl glycerol, one hour incubation

SMILES	IC50
COc1ccc(C(=O)N2CCc3c(nn(C)c3-c3cc(F)c(F)c(F)c3)[C@@H]2C)c(F)c1 [Example 265, [(7S)-2,7-Dimethyl-3-(3,4,5-trifluorophenyl)-5,7-dihydro-4H-pyrazolo[3,4-c]pyridin-6-yl]-(2-fluoro-4-methoxy-phenyl)methanone]	35 nM
Cn1nc2c(c1-c1ccccc1)CCN(C(=O)c1ccc3[nH]cnc3c1)C2 [Example 71, (1H-Benzo[d]imidazol-5-yl)(2-methyl-3-phenyl-2,4,5,7-tetrahydro-6H-pyrazolo[3,4-c]pyridin-6-yl)methanone]	1010 nM
COc1c(C)cccc1C(=O)N1CCc2c(nn(C)c2-c2ccccc2)C1 [Example 7, (2-Methoxy-3-methylphenyl)(2-methyl-3-phenyl-2,4,5,7-tetrahydro-6H-pyrazolo[3,4-c]pyridin-6-yl)methanone]	113 nM
Cc1cc(C(=O)N2CCc3c(nn(C)c3-c3cc(F)c(F)c(F)c3)[C@@H]2C)cc2cn[nH]c12 [Example 210, (S)-(2,7-Dimethyl-3-(3,4,5-trifluorophenyl)-2,4,5,7-tetrahydro-6H-pyrazolo[3,4-c]pyridin-6-yl)(7-methyl-1H-indazol-5-yl)methanone]	0.6 nM
C[C@H]1c2nn(C)c(-c3cc(F)c(F)c(F)c3)c2CCN1C(=O)c1c[nH]c2ccncc12 [Example 218, (S)-(2,7-Dimethyl-3-(3,4,5-trifluorophenyl)-2,4,5,7-tetrahydro-6H-pyrazolo[3,4-c]pyridin-6-yl)(1H-pyrrolo[3,2-c]pyridin-3-yl)methanone]	35.2 nM

Other lines, results leading:

IC50	SMILES
71.8 nM	C[C@H]1c2nn(C)c(-c3cc(F)c(F)c(F)c3)c2CCN1C(=O)c1cccc(-n2cnnc2)c1 [Example 290, [(7S)-2,7-Dimethyl-3-(3,4,5-trifluorophenyl)-5,7-dihydro-4H-pyrazolo[3,4-c]pyridin-6-yl]-[3-(1,2,4-triazol-4-yl)phenyl]methanone]
18.4 nM	CC1c2nn(C)c(-c3cccc(Cl)c3)c2CCN1C(=O)c1ccc2nccnc2c1 (racemic) [Example 132, (3-(3-Chlorophenyl)-2,7-dimethyl-2,4,5,7-tetrahydro-6H-pyrazolo[3,4-c]pyridin-6-yl)(quinoxalin-6-yl)methanone]
309 nM	C[C@H]1c2nn(C)c(-c3cc(F)c(F)c(F)c3)c2CCN1C(=O)c1cccc(F)c1-n1nccn1 [Example 195, (S)-(2,7-Dimethyl-3-(3,4,5-trifluorophenyl)-2,4,5,7-tetrahydro-6H-pyrazolo[3,4-c]pyridin-6-yl)(3-fluoro-2-(2H-1,2,3-triazol-2-yl)phenyl)methanone]
6550 nM	C[C@@H]1c2nn(C)c(-c3cc(F)cc(F)c3)c2CCN1C(=O)c1cnc2ccoc2c1 [Example 154, (R)-(3-(3,5-Difluorophenyl)-2,7-dimethyl-2,4,5,7-tetrahydro-6H-pyrazolo[3,4-c]pyridin-6-yl)(furo[3,2-b]pyridin-6-yl)methanone]
199 nM	C[C@H]1c2nn(C)c(-c3cccc(Cl)c3)c2CCN1C(=O)c1cc(Cl)cc(OC(F)(F)F)c1 [Example 116, (S)-(3-Chloro-5-(trifluoromethoxy)phenyl)(3-(3-chlorophenyl)-2,7-dimethyl-2,4,5,7-tetrahydro-6H-pyrazolo[3,4-c]pyridin-6-yl)methanone]
